In BindingDB's records for patent US11299488 (Bristol-Myers Squibb Company, 2022):

target: Rho-associated protein kinase 2 (Homo sapiens, UniProt O75116); assay: In Vitro Assay
Protocol: The effectiveness of compounds of the present invention as ROCK inhibitors can be determined in a 30 μL assay containing 20 mM HEPES, pH 7.5, 20 mM MgCl2, 0.015% Brij-35, 4 mM DTT, 5 μM ATP and 1.5 μM peptide substrate (FITC-AHA-AKRRRLSSLRA-OH) (SEQ ID No. 1). Compounds were dissolved in DMSO so that the final concentration of DMSO was <2%, and the reaction was initiated with Rho kinase variants. After incubation, the reaction was terminated by the addition of EDTA and the phosphorylated and non-phosphorylated peptides separated using a LABCHIP 3000 Reader (Caliper Life Sciences). […] Compounds were tested in dose-response format, and the inhibition of kinase activity was calculated at each concentration of compound. The inhibition data were fit using a curve-fitting program to determine the IC50; i.e., the concentration of compound required to inhibit 50% of kinase activity.

Rho-associated protein kinase 2, sequence (O75116 whole entry): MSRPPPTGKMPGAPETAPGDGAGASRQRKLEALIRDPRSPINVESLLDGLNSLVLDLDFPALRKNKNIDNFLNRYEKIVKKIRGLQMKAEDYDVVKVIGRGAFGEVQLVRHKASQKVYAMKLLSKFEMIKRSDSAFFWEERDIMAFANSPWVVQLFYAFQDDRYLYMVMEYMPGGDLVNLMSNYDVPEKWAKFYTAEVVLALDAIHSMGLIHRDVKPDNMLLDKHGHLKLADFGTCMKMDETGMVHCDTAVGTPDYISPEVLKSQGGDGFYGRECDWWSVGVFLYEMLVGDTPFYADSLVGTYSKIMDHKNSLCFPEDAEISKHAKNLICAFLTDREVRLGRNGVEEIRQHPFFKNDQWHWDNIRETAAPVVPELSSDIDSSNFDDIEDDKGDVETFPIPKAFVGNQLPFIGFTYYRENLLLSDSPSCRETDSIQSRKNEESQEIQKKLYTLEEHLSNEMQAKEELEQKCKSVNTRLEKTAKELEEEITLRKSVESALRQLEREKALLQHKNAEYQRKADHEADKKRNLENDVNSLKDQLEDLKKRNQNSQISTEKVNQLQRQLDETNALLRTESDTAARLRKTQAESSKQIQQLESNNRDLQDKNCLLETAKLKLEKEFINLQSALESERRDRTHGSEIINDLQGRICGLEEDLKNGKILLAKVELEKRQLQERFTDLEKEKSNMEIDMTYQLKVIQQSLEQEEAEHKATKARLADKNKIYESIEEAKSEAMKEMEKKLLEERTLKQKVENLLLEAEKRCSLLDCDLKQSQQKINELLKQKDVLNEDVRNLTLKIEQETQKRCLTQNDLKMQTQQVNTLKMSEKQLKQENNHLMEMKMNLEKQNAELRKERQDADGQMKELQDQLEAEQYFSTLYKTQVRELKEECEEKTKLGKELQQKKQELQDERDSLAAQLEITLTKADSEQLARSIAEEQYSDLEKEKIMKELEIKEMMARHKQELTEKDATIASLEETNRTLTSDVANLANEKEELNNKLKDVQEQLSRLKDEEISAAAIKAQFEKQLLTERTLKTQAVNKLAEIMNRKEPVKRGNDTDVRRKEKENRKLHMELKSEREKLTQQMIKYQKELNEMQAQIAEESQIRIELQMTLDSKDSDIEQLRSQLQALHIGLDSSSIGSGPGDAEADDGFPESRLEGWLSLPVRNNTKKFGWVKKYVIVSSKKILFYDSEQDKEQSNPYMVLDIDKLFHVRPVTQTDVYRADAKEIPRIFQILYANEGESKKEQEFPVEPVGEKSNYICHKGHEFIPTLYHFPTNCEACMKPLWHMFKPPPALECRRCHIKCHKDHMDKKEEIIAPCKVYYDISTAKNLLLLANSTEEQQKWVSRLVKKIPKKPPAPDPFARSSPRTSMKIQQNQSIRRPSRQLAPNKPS

Compound	IC50 [nM]
NC(=O)c1cccnc1O[C@H]1CC2(C[C@H](Nc3nc4c(Cl)cc(Cl)cc4s3)C2)C1 (some centres not stated) [US11299488, Example 5]	105
NC(=O)c1cccnc1O[C@H]1CC2(C[C@H](Nc3nc4c(F)cc(Cl)cc4s3)C2)C1 (some centres not stated) [US11299488, Example 7]	396
NC(=O)c1cccnc1O[C@H]1CC2(C[C@H](Nc3nc(-c4ccc(Cl)cc4)cs3)C2)C1 (some centres not stated) [US11299488, Example 9]	3300
NC(=O)c1cccnc1O[C@H]1CC2(C[C@H](Nc3nc(-c4ccccc4Cl)cs3)C2)C1 (some centres not stated) [US11299488, Example 10]	1700
NC(=O)c1cccnc1O[C@H]1CC2(C[C@H](Nc3nccc(N4CCCC(F)(F)C4)n3)C2)C1 (some centres not stated) [US11299488, Example 36]	175

The next compounds have a lower IC50 than those just listed; values first:

IC50 [nM]	Compound
76	NC(=O)c1cccnc1O[C@H]1CC2(C[C@H](Nc3nc4c(Cl)cccc4s3)C2)C1 (some centres not stated) [US11299488, Example 4]
15	COc1cnc(N[C@H]2CC3(C2)C[C@H](Oc2ncccc2C(N)=O)C3)c2cc(Cl)ccc12 (some centres not stated) [US11299488, Example 27]
